pIC50: −log10 of the molar value.
What follows are compounds tested against human TrkA receptor (Homo sapiens (Human), UniProt P04629) (assay: DiscoverX PathHunter TrkA functional assay (NGF-stimulated U2OS cells)). Conditions: U2OS cells expressing human TrkA-PK, Shc1-EA and p75NTR; compound 1 h, then NGF at ~80% of maximal response for 3 h; luminescence.
Format: cell-based

Sequence of human TrkA receptor (P04629 33-796): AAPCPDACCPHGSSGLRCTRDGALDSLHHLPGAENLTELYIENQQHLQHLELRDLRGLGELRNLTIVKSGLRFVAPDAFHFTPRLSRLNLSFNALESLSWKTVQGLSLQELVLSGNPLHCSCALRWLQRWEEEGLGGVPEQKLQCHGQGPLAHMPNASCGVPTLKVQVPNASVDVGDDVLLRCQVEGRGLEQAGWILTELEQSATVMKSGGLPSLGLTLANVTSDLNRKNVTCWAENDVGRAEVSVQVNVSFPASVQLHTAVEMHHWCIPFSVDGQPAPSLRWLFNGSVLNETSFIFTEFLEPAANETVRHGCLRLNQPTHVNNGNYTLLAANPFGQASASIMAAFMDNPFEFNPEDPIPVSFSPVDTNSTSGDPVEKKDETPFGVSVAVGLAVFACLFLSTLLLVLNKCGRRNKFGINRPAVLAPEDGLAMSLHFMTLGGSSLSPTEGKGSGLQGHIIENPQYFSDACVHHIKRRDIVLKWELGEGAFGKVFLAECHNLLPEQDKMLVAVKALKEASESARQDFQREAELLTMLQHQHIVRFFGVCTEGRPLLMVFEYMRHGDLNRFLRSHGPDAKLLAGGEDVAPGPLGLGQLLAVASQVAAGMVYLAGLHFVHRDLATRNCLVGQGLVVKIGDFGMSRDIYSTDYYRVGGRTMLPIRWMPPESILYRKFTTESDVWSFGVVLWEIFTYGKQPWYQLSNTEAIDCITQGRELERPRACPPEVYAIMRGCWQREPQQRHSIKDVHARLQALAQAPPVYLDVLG

| Structure (SMILES) | pIC50 |
| --- | --- |
| Cc1ncc(NC(=O)c2cc(-c3ccn(C)n3)c(C(F)(F)F)cc2F)c(-c2ccccc2CO)n1 [Example 136, 2-Fluoro-N-(4-(2-(hydroxymethyl)phenyl)-2-methylpyrimidin-5-yl)-5-(1-methyl-1H-pyrazol-3-yl)-4-(trifluoromethyl)benzamide] | 8.36 |
| Cn1ccc(-c2cc(C(=O)Nc3cnc4c(c3-c3ccccc3)CCN(C(=O)CO)C4)ccc2C(F)(F)F)n1 [Example 143, N-(7-(2-Hydroxyacetyl)-4-phenyl-5,6,7,8-tetrahydro-1,7-naphthyridin-3-yl)-3-(1-methyl-1H-pyrazol-3-yl)-4-(trifluoromethyl)benzamide] | 7.72 |
| Cn1ccc(-c2cc(C(=O)Nc3cc4c(nc3-c3ccccc3)CCNC4)c(F)cc2C(F)(F)F)n1 [Example 145, 2-fluoro-5-(1-methyl-1H-pyrazol-3-yl)-N-(2-phenyl-5,6,7,8-tetrahydro-1,6-naphthyridin-3-yl)-4-(trifluoromethyl)benzamide] | 8.54 |
| CC(=O)N1CCc2nc(-c3ccccc3)c(NC(=O)c3cc(-c4ncccn4)c(C(F)(F)F)cc3F)cc2C1 [Example 148, N-(6-acetyl-2-phenyl-5,6,7,8-tetrahydro-1,6-naphthyridin-3-yl)-2-fluoro-5-(pyrimidin-2-yl)-4-(trifluoromethyl)benzamide] | 8.48 |
| CS(=O)(=O)N1CCc2nc(-c3ccccc3)c(NC(=O)c3cc(-c4ncccn4)c(C(F)(F)F)cc3F)cc2C1 [Example 149, 2-fluoro-N-(6-(methylsulfonyl)-2-phenyl-5,6,7,8-tetrahydro-1,6-naphthyridin-3-yl)-5-(pyrimidin-2-yl)-4-(trifluoromethyl)benzamide] | 7.96 |
| CNC(=O)N1CCc2nc(-c3ccccc3)c(NC(=O)c3cc(-c4ncccn4)c(C(F)(F)F)cc3F)cc2C1 [Example 150, 3-(2-fluoro-5-(pyrimidin-2-yl)-4-(trifluoromethyl)benzamido)-N-methyl-2-phenyl-7,8-dihydro-1,6-naphthyridine-6(5H)-carboxamide] | 7.85 |
| NC(=O)N1CCc2nc(-c3ccccc3)c(NC(=O)c3cc(-c4ncccn4)c(C(F)(F)F)cc3F)cc2C1 [Example 155, 3-(2-fluoro-5-(pyrimidin-2-yl)-4-(trifluoromethyl)benzamido)-2-phenyl-7,8-dihydro-1,6-naphthyridine-6(5H)-carboxamide] | 8.64 |
| Cn1ccc(-c2cc(C(=O)Nc3cc4c(nc3-c3ccccc3)CCN(C(=O)CN)C4)ccc2C(F)(F)F)n1 [Example 156, N-(6-glycyl-2-phenyl-5,6,7,8-tetrahydro-1,6-naphthyridin-3-yl)-3-(1-methyl-1H-pyrazol-3-yl)-4-(trifluoromethyl)benzamide] | 9.00 |
| Cn1ccc(-c2cc(C(=O)Nc3cc4c(nc3-c3ccccc3)CCN(CC(=O)O)C4)ccc2C(F)(F)F)n1 [Example 157, 2-(3-(3-(1-methyl-1H-pyrazol-3-yl)-4-(trifluoromethyl)benzamido)-2-phenyl-7,8-dihydro-1,6-naphthyridin-6(5H)-yl)acetic acid] | 7.64 |
| Cn1ccc(-c2cc(C(=O)Nc3cc4c(nc3-c3ccccc3)CCN(CCO)C4)ccc2C(F)(F)F)n1 [Example 158, N-(6-(2-hydroxyethyl)-2-phenyl-5,6,7,8-tetrahydro-1,6-naphthyridin-3-yl)-3-(1-methyl-1H-pyrazol-3-yl)-4-(trifluoromethyl)benzamide] | 8.12 |
| Cn1ccc(-c2cc(C(=O)Nc3cnc4c(c3-c3ccccc3)CCNC4=O)ccc2C(F)(F)F)n1 [Example 159, 3-(1-methyl-1H-pyrazol-3-yl)-N-(8-oxo-4-phenyl-5,6,7,8-tetrahydro-1,7-naphthyridin-3-yl)-4-(trifluoromethyl)benzamide] | 6.59 |
| Cn1ccc(-c2cc(C(=O)Nc3cc4c(nc3-c3ccccc3)CNC4=O)c(F)cc2C(F)(F)F)n1 [Example 161, 2-fluoro-5-(1-methyl-1H-pyrazol-3-yl)-N-(5-oxo-2-phenyl-6,7-dihydro-5H-pyrrolo[3,4-b]pyridin-3-yl)-4-(trifluoromethyl)benzamide] | 9.42 |
| O=C(Nc1cc2c(nc1-c1ccccc1)CN(C(=O)CO)C2)c1cc(-c2ncccn2)c(C(F)(F)F)cc1F [Example 162, 2-fluoro-N-(6-(2-hydroxyacetyl)-2-phenyl-6,7-dihydro-5H-pyrrolo[3,4-b]pyridin-3-yl)-5-(pyrimidin-2-yl)-4-(trifluoromethyl)benzamide] | 6.74 |
| C[C@@H](O)C(=O)N1CCc2nc(-c3ccccc3)c(NC(=O)c3ccc(C(F)(F)F)c(-c4ccn(C)n4)c3)cc2C1 [Example 163, (R)-N-(6-(2-hydroxypropanoyl)-2-phenyl-5,6,7,8-tetrahydro-1,6-naphthyridin-3-yl)-3-(1-methyl-1H-pyrazol-3-yl)-4-(trifluoromethyl)benzamide] | 8.89 |

The remaining compounds from weak to strong by pIC50, led by results:

| pIC50 | Structure (SMILES) |
| --- | --- |
| 7.57 | Cn1ccc(-c2cnc(N3CCC[C@@H]3CO)c(NC(=O)c3cc(-c4ncccn4)c(C(F)(F)F)cc3F)c2)n1 [Example 138, (R)-2-fluoro-N-(2-(2-(hydroxymethyl)pyrrolidin-1-yl)-5-(1-methyl-1H-pyrazol-3-yl)pyridin-3-yl)-5-(pyrimidin-2-yl)-4-(trifluoromethyl)benzamide] |
| 7.85 | Cn1ccc(-c2cc(C(=O)Nc3cc4c(nc3-c3ccccn3)CCNC4=O)c(F)cc2C(F)(F)F)n1 [Example 141, 2-Fluoro-5-(1-methyl-1H-pyrazol-3-yl)-N-(5-oxo-2-(pyridin-2-yl)-5,6,7,8-tetrahydro-1,6-naphthyridin-3-yl)-4-(trifluoromethyl)benzamide] |
| 7.85 | CC(=O)N1CCc2nc(-c3ccccc3)c(NC(=O)c3ccc(C(F)(F)F)c(-c4ncccn4)c3)cc2C1 [Example 147, N-(6-acetyl-2-phenyl-5,6,7,8-tetrahydro-1,6-naphthyridin-3-yl)-3-(pyrimidin-2-yl)-4-(trifluoromethyl)benzamide] |
| 7.89 | O=C(Nc1cc2c(nc1-c1ccccc1)CCNC2)c1cc(-c2ccccn2)c(C(F)(F)F)cc1F [Example 146, 2-fluoro-N-(2-phenyl-5,6,7,8-tetrahydro-1,6-naphthyridin-3-yl)-5-(pyridin-2-yl)-4-(trifluoromethyl)benzamide] |
| 8.17 | Cn1ccc(-c2cc(C(=O)Nc3cc4c(nc3-c3ccccc3)CC(=O)NC4)c(F)cc2C(F)(F)F)n1 [Example 153, 2-fluoro-5-(1-methyl-1H-pyrazol-3-yl)-N-(7-oxo-2-phenyl-5,6,7,8-tetrahydro-1,6-naphthyridin-3-yl)-4-(trifluoromethyl)benzamide] |
| 8.33 | Cn1ccc(-c2cc(C(=O)Nc3cc4c(nc3-c3ccccc3)CNC(=O)C4)ccc2C(F)(F)F)n1 [Example 142, 3-(1-Methyl-1H-pyrazol-3-yl)-N-(6-oxo-2-phenyl-5,6,7,8-tetrahydro-1,7-naphthyridin-3-yl)-4-(trifluoromethyl)benzamide] |
| 8.33 | Cn1ccc(-c2cc(C(=O)Nc3cnc4c(c3-c3ccccc3)CN(C(=O)CO)CC4)ccc2C(F)(F)F)n1 [Example 160, N-(6-(2-hydroxyacetyl)-4-phenyl-5,6,7,8-tetrahydro-1,6-naphthyridin-3-yl)-3-(1-methyl-1H-pyrazol-3-yl)-4-(trifluoromethyl)benzamide] |
| 8.54 | O=C(Nc1cc(-c2csc(C3CC3)n2)cnc1N1CCC[C@@H]1CO)c1cc(-c2ncccn2)c(C(F)(F)F)cc1F [Example 137, (R)—N-(5-(2-Cyclopropylthiazol-4-yl)-2-(2-(hydroxymethyl)pyrrolidin-1-yl)pyridin-3-yl)-2-fluoro-5-(pyrimidin-2-yl)-4-(trifluoromethyl)benzamide] |
| 8.64 | NC(=O)c1ccc(-c2cnc(-c3ccccc3)c(NC(=O)c3cc(-c4cc[nH]n4)c(C(F)(F)F)cc3F)c2)cc1 [Example 165, N-(5-(4-carbamoylphenyl)-2-phenylpyridin-3-yl)-2-fluoro-5-(1H-pyrazol-3-yl)-4-(trifluoromethyl)benzamide] |
| 8.74 | Cn1ccc(-c2cc(C(=O)Nc3cc4c(nc3-c3ccccc3)CCN(CC(N)=O)C4)ccc2C(F)(F)F)n1 [Example 140, N-(6-(2-Amino-2-oxoethyl)-2-phenyl-5,6,7,8-tetrahydro-1,6-naphthyridin-3-yl)-3-(1-methyl-1H-pyrazol-3-yl)-4-(trifluoromethyl)benzamide] |
| 8.85 | O=C(Nc1cc2c(nc1-c1ccccc1)CCNC2=O)c1cc(-c2ncccn2)c(C(F)(F)F)cc1F [Example 139, 2-Fluoro-N-(5-oxo-2-phenyl-5,6,7,8-tetrahydro-1,6-naphthyridin-3-yl)-5-(pyrimidin-2-yl)-4-(trifluoromethyl)benzamide] |
| 9.12 | Cn1ccc(-c2cc(C(=O)Nc3cc4c(nc3-c3ccccc3)CCN(C(N)=O)C4)c(F)cc2C(F)(F)F)n1 [Example 154, 3-(2-fluoro-5-(1-methyl-1H-pyrazol-3-yl)-4-(trifluoromethyl)benzamido)-2-phenyl-7,8-dihydro-1,6-naphthyridine-6(5H)-carboxamide] |
| 9.27 | CC(=O)N1CCc2nc(-c3ccccc3)c(NC(=O)c3cc(-c4ccn(C)n4)c(C(F)(F)F)cc3Cl)cc2C1 [Example 151, N-(6-acetyl-2-phenyl-5,6,7,8-tetrahydro-1,6-naphthyridin-3-yl)-2-chloro-5-(1-methyl-1H-pyrazol-3-yl)-4-(trifluoromethyl)benzamide] |
| 9.29 | Cn1ccc(-c2cc(C(=O)Nc3cc(-c4ccc(C(N)=O)cn4)cnc3-c3ccccc3)c(F)cc2C(F)(F)F)n1 [Example 164, 5′-(2-Fluoro-5-(1-methyl-1H-pyrazol-3-yl)-4-(trifluoromethyl)benzamido)-6′-phenyl-[2,3′-bipyridine]-5-carboxamide] |
| 9.59 | Cn1ccc(-c2cc(C(=O)Nc3cc4c(nc3-c3ccccc3)CN(C(N)=O)CC4)c(F)cc2C(F)(F)F)n1 [Example 144, 3-(2-Fluoro-5-(1-methyl-1H-pyrazol-3-yl)-4-(trifluoromethyl)benzamido)-2-phenyl-5,6-dihydro-1,7-naphthyridine-7(8H)-carboxamide] |
| 10.16 | Cn1ccc(-c2cc(C(=O)Nc3cc4c(nc3-c3ccccc3)CCNC4=O)c(F)cc2C(F)(F)F)n1 [Example 152, 2-fluoro-5-(1-methyl-1H-pyrazol-3-yl)-N-(5-oxo-2-phenyl-5,6,7,8-tetrahydro-1,6-naphthyridin-3-yl)-4-(trifluoromethyl)benzamide] |

Reference: patent US9815846B2 (Merck Sharp & Dohme Corp., priority 2014, dated 2017)
